# Where a name gives a salt, the structure may show the parent alone.
# How the values were obtained:
# HIV-1 clade C pindieC1 = assay: CA-SP1 accumulation assay (immunoblot), clade C pindieC1; assay type: cell-based; settings: head prints K3016
# Protocol: (§1) Compound evaluation was performed against a panel of HIV-1 Clade C isolates K3016, pindieC1, and ZM247. The three isolates all contain the SP1-A7V. Clade B NL4-3 was included as the […] control.
# (§2) Plasmids, tissue culture and transfections. HIV-1 clade B molecular clone NL4-3 and cade C clones K3016, ZM247 were obtained from Dr. Christina Ochsenbauer, University of Alabama, USA. Both K3016 and ZM247 were constructed using viral strains from South Africa. The HIV-1 clade C molecular clone pindieC1 was obtained from Dr. Uday Ranga, JNCASR, India. This clone was constructed using an HIV strain from India. HEK-293T and TZM-bl cells were propagated in Dulbecco's modified Eagle's medium (DM4EM) containing 10% fetal bovine serum (FBS). HUT-R5 cells were propagated in RPM 1640 medium supplemented with 10% FBS. For transfections, HEK-293T cells were grown in six well plates to about 80% confluency. Cells were transfected using Lipofectamine 2000 (invitrogen, USA) following manufacturer's recommendations. For viral replication assays, HUT-R5 T-cells were transfected using DEAE dextran as described in Waheed, A. A., Ono, A., and Freed, E. O.; Methods for the study of HIV-1 assembly; Methods Mol. Biol. Clifton N.J. 485, 163-184 (2009).
# (§3) Preparation of viral stocks. Virus stocks were prepared by transfecting HEK-293T cells with HIV-1 DNAs (3 μg). 24 h post-transfection, the culture medium was replaced with fresh DMEM and incubated for another 2 h. Compounds tested were maintained in the culture throughout transfection. The culture supernatant was centrifuged at 845×g for 3 min to remove cellular debris. The clarified supernatants were filtered (pore size 0.45 µm filter disc) to remove residual cellular contaminants. For determination of viral infectivity, the un-concentrated virus was used to infect TZM-bl cells. For the CA-SP1 accumulation assay, the virus was pelleted by ultra-centrifugation at 210,100×g for 1 h at 4° C. using SW41Ti rotor (Beckman Coulter, USA).
# (§4) CA-SP1 accumulation assay. To measure accumulation of CA-SP1, immunoblot analysis of virus-associated proteins was performed. The virus pellet was resuspended in radioimmunoprecipitation assay (RIPA) buffer (50 mM Tris-HCl pH 8.0, 150 mM sodium chloride, 1.0% NP-40, 0.5% sodium deoxycholate, 0.1% SDS) containing 1×protease inhibitor cocktail (Roche, Germany). The viral lysates were subjected to SDS-polyacrylamide gel electrophoresis (15% gel). Proteins were transferred to polyvinylidene difluoride membranes and reacted with HIV-IgG obtained from the NIH AIDS Reagent Program (catalog no. 3957) followed by incubation with HRP-conjugated anti-human secondary antibodies (GE Healthcare, UK). The proteins were visualized by enhanced chemiluminescence (Pierce, USA) and the bands were quantified using ImageJ software (http://imagej.nih.gov/ij/).
# HIV-1 clade C ZM247 = assay: CA-SP1 accumulation assay (immunoblot), clade C ZM247; assay type: cell-based; settings: head prints K3016
# Protocol: as §1, §2, §3, §4
# [1] = Cytotoxicity assay CellTitre-Blue, HUT-R5; assay type: cell-based; settings: human, HUT-R5 cells, read-out: Cytotoxicity CC50 HUTR5
# Protocol: Cytotoxicity assays. Cytotoxicity assays were performed using the CellTitre-Blue Cell Viability Assay kit (Promega, USA) as per manufacturer's recommendations. HEK-293T and HUT-R5 cell lines were maintained in the presence of serial dilutions of the compounds for 4 days and treated with CellTitre-Blue reagent for 4 h at 37° C. The fluorescent signals were recorded at 530/25excision and 590/35emission using BioTek microplate reader. The 50% cytotoxicity concentrations (CC50s) were determined as the compound concentrations that reduced the fluorescent signals to 50% relative to DMSO only controls.
# WT pNL4-3 in MT-4 cells = assay: Antiviral assay in MT-4 cells (RT readout), WT NL4-3; assay type: cell-based, HIV-1; settings: Human immunodeficiency virus 1, NL43, MT4, 96 h, read-out: Antiviral Assay IC50 (nM) NL4-3
# Protocol: (§5) Cell culture, plasmids and transfections. The MT-4 T-cell line was maintained in RPMI-1640 medium supplemented with 10% (vol/vol) fetal bovine serum (FBS), 2 mM glutamine, 100 U/mL penicillin and 100 μg/mL streptomycin at 37° C. in a humidified 5% CO2 atmosphere. HeLa and 293T cells were maintained in Dulbecco's modified Eagle's medium (DMEM) supplemented with 5% (vol/vol) FBS, 2 mM glutamine, 100 U/mL penicillin and 100 μg/mL streptomycin. Molecular clones used in this study were WT pNL4-3 and the derivative encoding a Val-to-Ala mutation at SP1 residue 7, referred to as SP1-V7A. The MT-4 T-cell line was transfected the DEAE/dextran procedure; HeLa and 293T cells were transfected with linear polyethylenimine (L-PEI) or Lipofectamine 2000 (Invitrogen) as recommended by the supplier.
# (§6) Antiviral assays. To produce HIV-1 stocks, 293T cells were transfected with WT pNL4-3 or the SP1-V7A derivative and culture supernatants were collected 24 h post transfection. RT-normalized virus supernatants were used to infect MT-4 cells at room temperature for 30 min. Cells were then cultured in the presence of serial dilutions of compounds. […] The IC50s in primary peripheral blood mononuclear cells (PBMCs) were calculated with a multi-clade panel of HIV-1 isolates by Southern Research Institute (Frederick, Md.). […]
# [2] = tested on: pNL4-3 SP1-V7A in MT-4 cells; assay: Antiviral assay in MT-4 cells (RT readout), SP1-V7A; assay type: cell-based, HIV-1; settings: Human immunodeficiency virus 1, MT4, 96 h, read-out: Antiviral Assay IC50 (nM) SP1 V7A
# Protocol: as §5, §6
# [3] = Cytotoxicity assay CellTiter-Blue, MT-4; assay type: cell-based; settings: human; MT-4 cells, 4 to 8 days; mean ± SEM, three experiments
# Protocol: (§7) Cytotoxicity assays. Cytotoxicity was measured with CellTiter-Blue® Cell Viability Assay according to the manufacturer's protocol (Promega). Two cell lines, MT-4 and HeLa, were used in this assay. Cells were incubated with serial dilution of compounds at 37° C. for 4 to 8 days and subjected to CellTiter-Blue Reagent. The fluorescent signal was measured at 560 nm Ex/590 nm Em by a plate reader (TECAN, Infinite® M1000 PRO). The 50% cytotoxic concentrations (CC50s) were defined as compound concentrations at which the fluorescent signals were reduced by 50%/relative to the no-inhibitor (DMSO only) controls using GraphPad Prism 6 software and are reported in Table 1.
# [4] = Cytotoxicity assay CellTiter-Blue, HeLa; assay type: cell-based; settings: human; HeLa cells, 4 to 8 days; mean ± SEM, three experiments
# Protocol: as §7
compound,measurement,setting,value
"C=C(C)[C@@H]1CC[C@]2(CCNCCN3CCS(=O)(=O)CC3)CC[C@]3(C)[C@H](CC[C@@H]4[C@@]5(C)CC[C@H](OC(=O)CC(C)(C)C(=O)O)C(C)(C)[C@@H]5CC[C@]43C)[C@@H]12 [Compound 51ee, (3β)-17-[[[2-[2-(1,1-Dioxothiomorpholin-4-yl)]Ethyl]Amino]Ethyl]-28-norlup-20(29)-en-3-ol, 3-(1-Hydrogen 2,2-Dimethylbutanedioate)]",% CA-SP1 Accumulation K3016 10 nM,HIV-1 clade C pindieC1,41.8%
same,% CA-SP1 Accumulation K3016 100 nM,HIV-1 clade C pindieC1,48.3%
same,% CA-SP1 Accumulation K3016 10 nM,HIV-1 clade C ZM247,14.2%
same,% CA-SP1 Accumulation K3016 100 nM,HIV-1 clade C ZM247,32.6%
same,CC50 at 4 days,[1],> 500 nM
"C=C(C)[C@@H]1CC[C@]2(CCNC3CCN(CCO)CC3)CC[C@]3(C)[C@H](CC[C@@H]4[C@@]5(C)CC[C@H](OC(=O)CC(C)(C)CC(=O)O)C(C)(C)[C@@H]5CC[C@]43C)[C@@H]12 [Compound 51f, (3β)-17-[2-[[1-(2-Hydroxyethyl)piperidin-4-yl]amino]ethyl]-28-norlup-20(29)-en-3-ol, 3-(Hydrogen 3,3-Dimethylpentanedioate), Bis(trifluoroacetate) Salt]",IC50,WT pNL4-3 in MT-4 cells,21 ± 19 nM
same,IC50,[2],8 ± 2 nM
same,CC50,[3],366 ± 44 nM
same,CC50,[4],> 1000 nM
"C=C(C)[C@@H]1CC[C@]2(CCNCCN3CCN(S(C)(=O)=O)CC3)CC[C@]3(C)[C@H](CC[C@@H]4[C@@]5(C)CC[C@H](OC(=O)CC(C)(C)C(=O)O)C(C)(C)[C@@H]5CC[C@]43C)[C@@H]12 [Compound 51ff, (3β)-17-[2-[[2-[4-(Methylsulfonyl)piperazin-1-yl]ethyl]amino]ethyl]-28-norlup-20(29)-en-3-ol, 3-(1-Hydrogen 2,2-Dimethylbutanedioate)]",% CA-SP1 Accumulation K3016 10 nM,HIV-1 clade C pindieC1,36.7%
same,% CA-SP1 Accumulation K3016 100 nM,HIV-1 clade C pindieC1,39.1%
same,% CA-SP1 Accumulation K3016 10 nM,HIV-1 clade C ZM247,12.8%
same,% CA-SP1 Accumulation K3016 100 nM,HIV-1 clade C ZM247,19.1%
same,CC50 at 4 days,[1],> 500 nM
"C=C(C)[C@@H]1CC[C@]2(CCNCCN3CCN(Cc4ccccc4)CC3)CC[C@]3(C)[C@H](CC[C@@H]4[C@@]5(C)CC[C@H](OC(=O)CC(C)(C)C(=O)O)C(C)(C)[C@@H]5CC[C@]43C)[C@@H]12 [Compound 51hh, (3β)-17-[2-[[2-[4-(Phenylmethyl)piperazin-1-yl]ethyl]amino]ethyl]-28-norlup-20(29)-en-3-ol, 3-(1-Hydrogen 2,2-Dimethylbutanedioate)]",% CA-SP1 Accumulation K3016 10 nM,HIV-1 clade C pindieC1,26.7%
same,% CA-SP1 Accumulation K3016 100 nM,HIV-1 clade C pindieC1,43.8%
same,% CA-SP1 Accumulation K3016 10 nM,HIV-1 clade C ZM247,7.0%
same,% CA-SP1 Accumulation K3016 100 nM,HIV-1 clade C ZM247,27.2%
same,CC50 at 4 days,[1],> 500 nM

# Reference: patent US11236122B2, “Triterpene amine derivatives” (DFH THERAPEUTICS, priority 2018, dated 2022)
